Experimental data from patent US7652054B2, “Tricyclic compounds useful as angiotensin II agonists” (Vicore Pharma AB, priority 2001, dated 2010).

Tested on: duodenal mucosal alkaline secretion
Assay: Test C: duodenal mucosal alkaline secretion assay
Type: in vivo
Conditions: co-administration with title compounds of the Examples, anaesthetised rats
Description: Duodenal Mucosal Alkaline Secretion Assay
Compounds were exposed to the duodenal mucosa in barbiturate-anaesthetised rats prepared for in situ titration of duodenal mucosal alkaline secretion, according to the methodology described by Flemström et al in Am. J. Physiol. (1982) 243, G348.

With `Cc1cc(Cn2cnc3c2C[C@@H](C(=O)O)N(C(=O)C(c2ccccc2)c2ccccc2)C3)ccc1N(C)C` [PD123319] the “effect of co-administration on the mucosal alkalisation stimulated by title compounds” value was “blocked”.
